Data from PMC11969438 (Inorganic Chemistry Frontiers, 2025).
Entries after “also recorded” stand apart in the source; their conditions may differ.

Legend:
HCT116 cells = test: MTT-based cell viability assay, 72 h; set-up: species or system human; conditions: without AA
Experimental: Cell models were seeded (2–2.5 × 10^3 cells per well) in 96-well plates. After 24 h of recovery, the compounds were applied at the concentrations indicated in triplicate. Cell viability was determined after 72 h of continuous drug incubation using an MTT-based cell viability assay (EZ4U, Biomedica, Vienna, Austria) according to the manufacturer's recommendations. Absorbance was measured at 450 nm (vs. 620 nm as reference) using a multimode microplate reader (Tecan Spark, Zurich, Switzerland). Half-maximal inhibitory concentrations (IC50 values) were derived via interpolation from dose–response curves, modeled with the four-parameter logistic (4PL) nonlinear regression model in GraphPad Prism (La Jolla, CA, USA) from at least three independent experiments.

[1] = Hematological analysis 24 h after the second dose; conditions: 24 h after second dose; for anemia: two i.v. doses equimolar to 9 mg kg^−1 oxaliplatin
Experimental: Mice were kept in groups of four per cage with sterilized paper-based environmental enrichment and food and water ad libitum, under pathogen-free conditions and a controlled environment with a 12 h light–dark cycle. Syngeneic models of colorectal carcinoma were generated via subcutaneous injection of CT-26 cells (0.5 × 10^6 cells in 50 μL of serum-free RPMI-1640 medium) into the right flank of 8–12 weeks old BALB/c mice. […] All animals were euthanized 24 h after the second dose. […] To determine the anticancer efficacy of the investigated compounds, treatment started 4 d after tumor implantation, when all tumors were measurable (>25 mm^3) using a twice-weekly treatment scheme for two weeks. Tumor size was determined daily via manual caliper measurement. The tumor volume was calculated as tumor volume = (length × diameter × diameter)/2. The overall condition, shape, and activity of the animals were assessed daily. Peripheral blood was collected from the submandibular vein in K3E K3EDTA tubes (Greiner Bio-One; Kremsmünster, AUT) on ice and was analyzed for hematological parameters (red blood cells (RBCs), hemoglobin (HGB), hematocrit (HCT), red cell distribution width (RDW), mean corpuscular volume (MCV), white blood cells (WBCs), lymphocytes (LYM), monocytes (MO), granulocytes (GRA), and platelets (PLT) using a Vet ABC hematology analyzer (scil Animal Care GmbH, Viernheim, Germany). EDTA-blood was centrifuged (900g, 10 min) twice and the supernatant (EDTA-plasma) was stored at −20 °C for subsequent cytokine/chemokine analysis using a Luminex detection platform. All animal experiments were performed with humane endpoints based on Federation of European Laboratory Animal Science Associations guidelines and according to the regulations of the Ethics Committee for the Care and Use of Laboratory Animals at the Medical University Vienna (proposal number BMBWF 2023–0.122.324). Animals were euthanized upon reaching a tumor volume of >1500 mm^3, a loss in body weight (>20%), tumor ulceration or other indications of deteriorated health. Animals were euthanized via cervical dislocation.

CT-26 tumors = test: Anticancer efficacy in vivo, syngeneic colorectal carcinoma; set-up: species or system BALB/c mice
Experimental: (§1) Tumor size was determined daily via manual caliper measurement. […] Animals were euthanized via cervical dislocation.

[2] = Reduction kinetics with 10 eq. L-ascorbic acid in phosphate buffer, UHPLC; format: physicochemical; conditions: 10 eq. AA, PB pH 7.4, 20 °C, after 24 h
Experimental: PB (150 mM, pH 7.4) containing 1 mM platinum compound was incubated at 20 °C, with and without the addition of 10 eq. of AA. The reaction was monitored using a Thermo Scientific Dionex UltiMate 3000 UHPLC system with a Waters Acquity UPLC BEH C18 1.7 μm 3.0 × 50 mm column. Milli-Q water containing 0.1% formic acid and acetonitrile containing 0.1% formic acid were used as eluents. A gradient of 5–95% over 5 min was used with a flow of 0.6 mL min^−1. To evaluate the current state of the reaction, the peak area of the parental complex was used.

THP1-Dual cells = test: Quantitative RT-PCR of target genes downstream of STING; format: cell-based, human; conditions: 24 h, prodrugs 100 μM, MSA-2 25 μM
Experimental: The THP1-Dual cell model was seeded at 1 × 10^6 cells per well in six-well plates. After 24 h of recovery, the compounds were applied at the concentrations indicated. After 24 h of drug exposure, total RNA was isolated using TRIzol reagent (Thermo Fisher Scientific, MA, USA), as described previously.[12] RNA was reverse transcribed into cDNA using RevertAid Reverse Transcriptase (Thermo Fisher Scientific). Real-time PCR was performed using the GoTaq® RT-qPCR system (Promega) with a CFX96 Touch Real-Time PCR Detection System (Bio-Rad Laboratories). Relative mRNA levels were quantified using the 2^−ddCT method.[54] RPL41 was used as a housekeeping gene. Human-specific primers were purchased from Eurofins Genomics (Ebersberg, Germany) with the following sequences: RPL41: fwd (5′-[…]-3′), rev (5′-[…]-3′); IFNB1: fwd (5′-CTTGGATTCCTACAAAGAAGCAGC-3′), rev (5′-[…]-3′); ISG15: fwd (5′-[…]-3′), rev (5′-[…]-3′); IFIT1: fwd (5′-[…]-3′), rev (5′-[…]-3′); CXCL10: fwd (5′-[…]-3′), rev (5′-[…]-3′); and CCL5: fwd (5′-[…]-3′), rev (5′-[…]-3′).

albumin = molecular target: T1, albumin (Bos taurus, UniProt P02769); test: Albumin binding in fetal calf serum, SEC-ICP-MS; format: in vitro ADME; conditions: 50 μM in FCS, 37 °C, up to 24 h
T1 construct: Serum proteins have a retention span of ∼2–4 min as part of the high-molecular weight fraction with albumin at ∼4 min; tissue Sigma-Aldrich; host or cells: fetal calf serum (whole serum, buffered with 150 mM phosphate buffer pH 7.4)
T1 sequence (P02769 25-607): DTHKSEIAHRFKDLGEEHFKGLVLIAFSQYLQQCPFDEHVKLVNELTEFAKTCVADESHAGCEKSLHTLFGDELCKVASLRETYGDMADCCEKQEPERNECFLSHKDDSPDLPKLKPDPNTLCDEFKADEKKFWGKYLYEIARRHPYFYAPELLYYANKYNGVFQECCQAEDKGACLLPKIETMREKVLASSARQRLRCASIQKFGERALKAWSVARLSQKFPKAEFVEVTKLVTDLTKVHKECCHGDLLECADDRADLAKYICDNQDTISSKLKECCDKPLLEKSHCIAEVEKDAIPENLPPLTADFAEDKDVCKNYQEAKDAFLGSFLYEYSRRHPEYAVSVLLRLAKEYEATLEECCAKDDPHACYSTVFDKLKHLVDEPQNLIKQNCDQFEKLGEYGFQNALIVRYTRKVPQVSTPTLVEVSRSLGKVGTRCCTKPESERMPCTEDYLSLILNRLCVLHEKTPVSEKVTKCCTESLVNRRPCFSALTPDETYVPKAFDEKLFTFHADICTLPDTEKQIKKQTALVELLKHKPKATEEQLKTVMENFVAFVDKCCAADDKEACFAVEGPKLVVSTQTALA
Experimental: FCS was purchased from Sigma-Aldrich and buffered with 150 mM PB pH 7.4 to guarantee a stable pH. The platinum(IV) complexes were dissolved in 150 mM PB (pH 7.4) at a concentration of 5 mM and diluted 1 : 100 in the buffered serum to obtain a final concentration of 50 μM. The samples were then incubated in an autosampler at 37 °C and analyzed for 24 h. Between each sample, a pure water blank was measured. For SEC-ICP-MS measurements an Agilent 1260 Infinity system coupled to an Agilent 7800 ICP-MS equipped with a dynamic reaction cell was used. Oxygen (purity 5.5, Messer Austria GmbH, Gumpoldskirchen, Austria) was used as a reaction gas.

[3] = Body weight of treated animals; format: in vivo, CT-26-bearing BALB/c mice; conditions: peritumoral application
Experimental: as §1

SMILES	IC50 (HCT116 cells)	red blood cell counts (RBCs), hematocrit (HCT), red cell distribution width (RDW) [1]	anemia [1]	tumor growth (CT-26 tumors; i.v. twice a week for two weeks, equimolar to 9 mg kg^−1 oxaliplatin)	complex remaining intact in presence of AA [2]	mRNA induction of immune response genes (IFN-β, ISG15, IFIT1, CXCL10, CCL5) (THP1-Dual cells)	ability to conjugate to albumin (albumin)	tumor volume (CT-26 tumors; peritumoral (p.t.) application, identical doses as i.v.)	effect on body weights [3]
O=C1[O][Pt]2([NH][C@@H]3CCCC[C@H]3[NH]2)[O]C1=O [oxaliplatin, reference compound]	800 nM	clearly lowered	anemia	clearly reduced tumor growth					
COCCOCCOCCOCCNC(=O)[O][Pt-2]12([O]C(=O)CCC(=O)c3cc4cc(OC)c(OC)cc4s3)([NH2+][C@@H]3CCCC[C@H]3[NH2+]1)[O]C(=O)C(=O)[O]2 [Ox-MSA-PEG-Ca, (OC-6-34)-[(1R,2R)-1,2-cyclohexanediamino]-oxalato-[4-(5,6-dimethoxybenzo[b]thiophen-2-yl)-4-oxobutylcarboxylato]-[3,6,9,12-tetraoxatridecan-1-amino]platinum(IV)]			not		very well comparable to Ox-MSA-PEG-Es	distinctly raised transcript levels to a comparable extent as free MSA-2	lacked the ability to conjugate to albumin	robust and significant decrease in the tumor volume; also recorded: distinct anticancer activity	without negative effects on body weights
COCCOCCOCCOCCC(=O)[O][Pt-2]12([O]C(=O)CCC(=O)c3cc4cc(OC)c(OC)cc4s3)([NH2+][C@@H]3CCCC[C@H]3[NH2+]1)[O]C(=O)C(=O)[O]2 [Ox-MSA-PEG-Es, (OC-6-44)-[(1R,2R)-1,2-cyclohexanediamino]-oxalato-[4-(5,6-dimethoxybenzo[b]thiophen-2-yl)-4-oxobutylcarboxylato]-[2,5,8,11-tetraoxatetradecanoato]platinum(IV)]					~80%	low propensity			
